Source: patent US8633183B2 (priority 2010, dated 2014)

These compounds were tested against PI3Kalpha (Homo sapiens (Human), UniProt P42336). Settings: read-out: IC50 PI3K.
PI3Kalpha, sequence (P42336 whole entry, looked up): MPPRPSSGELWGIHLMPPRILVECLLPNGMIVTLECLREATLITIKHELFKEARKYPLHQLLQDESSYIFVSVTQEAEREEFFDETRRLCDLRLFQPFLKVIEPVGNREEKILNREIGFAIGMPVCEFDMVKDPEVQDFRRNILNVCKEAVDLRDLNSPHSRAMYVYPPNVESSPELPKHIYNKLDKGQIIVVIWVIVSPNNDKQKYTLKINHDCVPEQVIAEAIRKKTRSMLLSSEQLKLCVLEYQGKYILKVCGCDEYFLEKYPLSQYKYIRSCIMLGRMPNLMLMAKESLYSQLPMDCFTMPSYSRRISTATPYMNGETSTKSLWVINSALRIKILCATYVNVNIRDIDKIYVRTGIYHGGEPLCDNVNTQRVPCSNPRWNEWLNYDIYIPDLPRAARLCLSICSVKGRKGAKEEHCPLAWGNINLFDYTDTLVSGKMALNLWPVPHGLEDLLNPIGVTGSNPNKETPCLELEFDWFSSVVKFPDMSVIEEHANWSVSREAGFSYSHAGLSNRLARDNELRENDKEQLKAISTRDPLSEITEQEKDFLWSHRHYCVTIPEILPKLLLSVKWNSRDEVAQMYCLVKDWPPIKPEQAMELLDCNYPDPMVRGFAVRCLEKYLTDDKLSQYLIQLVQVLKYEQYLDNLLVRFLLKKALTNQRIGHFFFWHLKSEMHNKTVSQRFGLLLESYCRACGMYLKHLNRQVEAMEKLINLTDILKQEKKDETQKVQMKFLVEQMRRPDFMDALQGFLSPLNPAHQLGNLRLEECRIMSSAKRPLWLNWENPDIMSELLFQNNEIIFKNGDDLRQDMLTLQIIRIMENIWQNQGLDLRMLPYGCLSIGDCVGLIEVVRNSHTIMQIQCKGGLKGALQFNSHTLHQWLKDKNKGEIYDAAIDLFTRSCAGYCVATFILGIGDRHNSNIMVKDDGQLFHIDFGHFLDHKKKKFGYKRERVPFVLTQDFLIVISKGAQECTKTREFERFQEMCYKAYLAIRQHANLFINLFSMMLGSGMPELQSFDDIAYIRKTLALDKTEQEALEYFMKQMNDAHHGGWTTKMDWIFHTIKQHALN
Compound CCc1ncnc(-c2ccc(C(=O)N3CCN(C4CCS(=O)(=O)C4)CC3)c(OC)c2)c1C#Cc1ccc(N)nc1 (stereo not shown) [Example E-54] has an IC50 of 165 nM. Compound CCc1ncnc(-c2ccc(C(=O)N3CC[C@H](N(C)C)C3)c(OC)c2)c1C#Cc1ccc(N)nc1 [Example E-55] has an IC50 of 148 nM. CCc1ncnc(-c2ccc(C(=O)N3CCN4CCCCC4C3)c(OC)c2)c1C#Cc1ccc(N)nc1 (stereo not shown) [Example E-57] showed an IC50 of 280 nM. CCc1ncnc(-c2ccc(C(=O)N3CCC(N4CCCCCC4)CC3)c(OC)c2)c1C#Cc1ccc(N)nc1 [Example E-58] showed an IC50 of 253 nM. In the case of CCc1ncnc(-c2ccc(C(=O)N3CCC(N(C)C)CC3)c(OC)c2)c1C#Cc1ccc(N)nc1 [Example E-59], the IC50 is reported as 294 nM. With CCc1ncnc(-c2ccc(C(=O)N(C)OC)c(OC)c2)c1C#Cc1ccc(N)nc1 [Example E-60] the IC50 was 69.4 nM. CCc1ncnc(-c2ccc(C(=O)N(C)C3CCS(=O)(=O)C3)c(OC)c2)c1C#Cc1ccc(N)nc1 (stereo not shown) [Example E-61] showed an IC50 of 103 nM. Compound CCOC(=O)N1CCN(C(=O)c2ccc(-c3ncnc(CC)c3C#Cc3ccc(N)nc3)cc2OC)CC1 [Example E-62] has an IC50 of 246 nM. Work on CCc1ncnc(-c2ccc(C(=O)NCCN3CCOCC3)c(OC)c2)c1C#Cc1ccc(N)nc1 [Example E-64] yielded an IC50 of 118 nM. For CCc1ncnc(-c2ccc(C(=O)N(C)CCN3CCCC3=O)c(OC)c2)c1C#Cc1ccc(N)nc1 [Example E-65], the IC50 was 88 nM. Work on CCc1ncnc(-c2ccc(C(=O)N3CCC4(CCN(C)C4)C3)c(OC)c2)c1C#Cc1ccc(N)nc1 (stereo not shown) [Example E-66] yielded an IC50 of 662 nM. Work on CCc1ncnc(-c2ccc(C(=O)N3CCN(CC4CCCCC4)CC3)c(OC)c2)c1C#Cc1ccc(N)nc1 [Example E-67] yielded an IC50 of 3050 nM. CCc1ncnc(-c2ccc(C(=O)N3CCN(C4CCCC4)CC3)c(OC)c2)c1C#Cc1ccc(N)nc1 [Example E-68] showed an IC50 of 412 nM. CCc1ncnc(-c2ccc(C(=O)N3CCN(Cc4ccccc4)CC3)c(OC)c2)c1C#Cc1ccc(N)nc1 [Example E-69] gave an IC50 of 415 nM. Compound CCc1ncnc(-c2ccc(C(=O)N3CCC(N4CCN(C)CC4)CC3)c(Cl)c2)c1C#Cc1ccc(N)nc1 [Example E-70] has an IC50 of 137 nM. Compound CCc1ncnc(-c2ccc(C(=O)N3CCC(N4CCOCC4)CC3)c(Cl)c2)c1C#Cc1ccc(N)nc1 [Example E-71] has an IC50 of 99.9 nM. In the case of CCc1ncnc(-c2ccc(C(=O)N3CCOCC3)c(Cl)c2)c1C#Cc1ccc(N)nc1 [Example E-72], the IC50 is reported as 66.5 nM. CCc1ncnc(-c2ccc(C(=O)N3CC(O)CO3)c(Cl)c2)c1C#Cc1ccc(N)nc1 (stereo not shown) [Example E-73] was tested, and the IC50 was 88.3 nM. With CCc1ncnc(-c2ccc(C(=O)N3CCCO3)c(Cl)c2)c1C#Cc1ccc(N)nc1 [Example E-74] the IC50 was 53.9 nM. For CCc1ncnc(-c2ccc(C(=O)N3CCCC(N(C)C)C3)c(Cl)c2)c1C#Cc1ccc(N)nc1 (stereo not shown) [Example E-75], the IC50 was 275 nM. CCc1ncnc(-c2ccc(C(=O)N3CCC(N4CCC(C)CC4)C3)c(Cl)c2)c1C#Cc1ccc(N)nc1 (stereo not shown) [Example E-76] showed an IC50 of 233 nM. For CCc1ncnc(-c2ccc(C(=O)N(C)OC)c(Cl)c2)c1C#Cc1ccc(N)nc1 [Example E-79], the IC50 was 50 nM. In the case of CCc1ncnc(-c2ccc(C(=O)N(C)C3CCS(=O)(=O)C3)c(Cl)c2)c1C#Cc1ccc(N)nc1 (stereo not shown) [Example E-80], the IC50 is reported as 48.2 nM. Work on CCc1ncnc(-c2ccc(C(=O)N3CCN(S(=O)(=O)CC)CC3)c(Cl)c2)c1C#Cc1ccc(N)nc1 [Example E-81] yielded an IC50 of 39.5 nM. CCOC(=O)N1CCN(C(=O)c2ccc(-c3ncnc(CC)c3C#Cc3ccc(N)nc3)cc2Cl)CC1 [Example E-82] showed an IC50 of 81.7 nM. Work on CCc1ncnc(-c2ccc(C(=O)NCCN3CCOCC3)c(Cl)c2)c1C#Cc1ccc(N)nc1 [Example E-84] yielded an IC50 of 113 nM. CCc1ncnc(-c2ccc(C(=O)N(C)CCN3CCCC3=O)c(Cl)c2)c1C#Cc1ccc(N)nc1 [Example E-85] gave an IC50 of 56.4 nM. Compound CCCCN1CCN(C(=O)c2ccc(-c3ncnc(CC)c3C#Cc3ccc(N)nc3)cc2C)CC1 [Example E-86] has an IC50 of 147 nM. CCc1ncnc(-c2ccc(C(=O)N3CCC(C(C)(C)O)CC3)c(C)c2)c1C#Cc1ccc(N)nc1 [Example E-87] was tested, and the IC50 was 78.8 nM. Compound CCc1ncnc(-c2ccc(C(=O)N3CCN(C4CCOCC4)CC3)c(C)c2)c1C#Cc1ccc(N)nc1 [Example E-88] has an IC50 of 84.4 nM. For CCc1ncnc(-c2ccc(C(=O)N3CCC(N4CCOCC4)CC3)c(C)c2)c1C#Cc1ccc(N)nc1 [Example E-91], the IC50 was 179 nM. CCc1ncnc(-c2ccc(C(=O)N3CCOCC3)c(C)c2)c1C#Cc1ccc(N)nc1 [Example E-92] showed an IC50 of 59.5 nM. CCc1ncnc(-c2ccc(C(=O)N3CC(O)CO3)c(C)c2)c1C#Cc1ccc(N)nc1 (stereo not shown) [Example E-93] gave an IC50 of 107 nM. In the case of CCc1ncnc(-c2ccc(C(=O)N3CCCO3)c(C)c2)c1C#Cc1ccc(N)nc1 [Example E-94], the IC50 is reported as 146 nM. Work on CCc1ncnc(-c2ccc(C(=O)N3CCC4(CCN(C)CC4)CC3)c(C)c2)c1C#Cc1ccc(N)nc1 [Example E-97] yielded an IC50 of 367 nM. CCc1ncnc(-c2ccc(C(=O)N3CCC(N4CCCCCC4)CC3)c(C)c2)c1C#Cc1ccc(N)nc1 [Example E-102] gave an IC50 of 289 nM. Work on CCc1ncnc(-c2ccc(C(=O)N(C)OC)c(C)c2)c1C#Cc1ccc(N)nc1 [Example E-104] yielded an IC50 of 71.9 nM. CCc1ncnc(-c2ccc(C(=O)N(C)C3CCS(=O)(=O)C3)c(C)c2)c1C#Cc1ccc(N)nc1 (stereo not shown) [Example E-105] showed an IC50 of 51.7 nM. CCOC(=O)N1CCN(C(=O)c2ccc(-c3ncnc(CC)c3C#Cc3ccc(N)nc3)cc2C)CC1 [Example E-107] gave an IC50 of 62.9 nM. Work on CCc1ncnc(-c2ccc(C(=O)N3CCN(C(C)=O)CC3)c(C)c2)c1C#Cc1ccc(N)nc1 [Example E-108] yielded an IC50 of 71.5 nM. For CCc1ncnc(-c2ccc(C(=O)N3CCC(N4CCCCC4)CC3)c(C)c2)c1C#Cc1ccc(N)nc1 [Example E-109], the IC50 was 259 nM. CCc1ncnc(-c2ccc(C(=O)N3CCC4(CCN(C)C4)C3)c(C)c2)c1C#Cc1ccc(N)nc1 (stereo not shown) [Example E-112] was tested, and the IC50 was 249 nM. With CCc1ncnc(-c2ccc(C(=O)N3CCN(CC4CCCCC4)CC3)c(C)c2)c1C#Cc1ccc(N)nc1 [Example E-113] the IC50 was 414 nM. Compound CCc1ncnc(-c2ccc(C(=O)N3CCN(Cc4ccccc4)CC3)c(C)c2)c1C#Cc1ccc(N)nc1 [Example E-115] has an IC50 of 154 nM. For CCc1ncnc(-c2ccc(C(=O)N3CCN(CC4CC4)CC3)c(C)c2)c1C#Cc1ccc(N)nc1 [Example E-116], the IC50 was 110 nM. Work on CCc1ncnc(-c2ccc(C(=O)N3CCC4(CC3)OCCCO4)c(C)c2)c1C#Cc1ccc(N)nc1 [Example E-117] yielded an IC50 of 73.5 nM. CCc1ncnc(-c2ccc(C(=O)N3CCC(C4CCN(C)CC4)CC3)c(C)c2)c1C#Cc1ccc(N)nc1 [Example E-119] was tested, and the IC50 was 281 nM. For CCc1ncnc(-c2ccc(C(=O)NC3CCCN(C)C3)c(C)c2)c1C#Cc1ccc(N)nc1 (stereo not shown) [Example E-120], the IC50 was 349 nM. With CCc1ncnc(-c2ccc(C(=O)N3CC[S+]([O-])CC3)c(C)c2)c1C#Cc1ccc(N)nc1 [Example E-121] the IC50 was 63.9 nM. For CCc1ncnc(-c2ccc(C(=O)N3CCNCC3)c(C)c2)c1C#Cc1ccc(N)nc1 [Example E-127], the IC50 was 158 nM. Compound CCc1ncnc(-c2ccc(C(=O)N(C)O)c(C)c2)c1C#Cc1ccc(N)nc1 [Example E-128] has an IC50 of 37.2 nM. CCc1ncnc(-c2ccc(C(=O)N3CCCN(C)CC3)c(C)c2)c1C#Cc1ccc(N)nc1 [Example E-129] showed an IC50 of 237 nM. Work on CCc1ncnc(-c2ccc(C(=O)N3CCN(c4ccccn4)CC3)c(C)c2)c1C#Cc1ccc(N)nc1 [Example E-130] yielded an IC50 of 69.1 nM. CCc1ncnc(-c2ccc(C(=O)N3CCN(c4ccncc4)CC3)c(C)c2)c1C#Cc1ccc(N)nc1 [Example E-131] was tested, and the IC50 was 158 nM. CCc1ncnc(-c2ccc(C(=O)N3CCC(O)CC3)c(C)c2)c1C#Cc1ccc(N)nc1 [Example E-132] was tested, and the IC50 was 45.5 nM. For CCc1ncnc(-c2ccc(C(=O)N3CCCOCC3)c(C)c2)c1C#Cc1ccc(N)nc1 [Example E-133], the IC50 was 77.8 nM. Compound CCc1ncnc(-c2ccc(C(=O)NCC3(C)COC3)c(C)c2)c1C#Cc1ccc(N)nc1 [Example E-134] has an IC50 of 44.9 nM. In the case of CCc1ncnc(-c2ccc(C(=O)N3CCN(c4ccccc4)CC3)c(C)c2)c1C#Cc1ccc(N)nc1 [Example E-135], the IC50 is reported as 149 nM. CCc1ncnc(-c2ccc(C(=O)N3CCN4CCC[C@@H]4C3)c(Cl)c2)c1C#Cc1ccc(N)nc1 [Example E-139] gave an IC50 of 160 nM. CCc1ncnc(-c2ccc(C(=O)N3CCN4CCC[C@@H]4C3)c(F)c2)c1C#Cc1ccc(N)nc1 [Example E-140] gave an IC50 of 198 nM. CCc1ncnc(-c2ccc(C(=O)N3CCN4CCC[C@H]4C3)c(Cl)c2)c1C#Cc1ccc(N)nc1 [Example E-141] gave an IC50 of 260 nM. CCc1ncnc(-c2ccc(C(=O)N3CCN4CCC[C@H]4C3)c(F)c2)c1C#Cc1ccc(N)nc1 [Example E-142] showed an IC50 of 107 nM. Work on CCc1ncnc(-c2ccc(C(=O)N3CCN4CCCC[C@H]4C3)c(Cl)c2)c1C#Cc1ccc(N)nc1 [Example E-143] yielded an IC50 of 127 nM. CCc1ncnc(-c2ccc(C(=O)N3CCN4CCCC[C@H]4C3)c(F)c2)c1C#Cc1ccc(N)nc1 [Example E-144] gave an IC50 of 169 nM. For CCc1ncnc(-c2ccc(C(=O)N3CCN4CCCC[C@@H]4C3)c(F)c2)c1C#Cc1ccc(N)nc1 [Example E-145], the IC50 was 358 nM. With CCc1ncnc(-c2cc(F)c(C(=O)N3CCN(CCCS(C)(=O)=O)CC3)c(F)c2)c1C#Cc1ccc(N)nc1 [Example E-146] the IC50 was 45.8 nM. CCc1ncnc(-c2cc(F)c(C(=O)N3CCn4ccnc4C3)c(F)c2)c1C#Cc1ccc(N)nc1 [Example E-147] was tested, and the IC50 was 55.7 nM. CCc1ncnc(-c2cc(F)c(C(=O)N3CCn4cnnc4C3)c(F)c2)c1C#Cc1ccc(N)nc1 [Example E-148] was tested, and the IC50 was 70.6 nM. CCc1ncnc(-c2cc(F)c(C(=O)N3CCn4c(C)cnc4C3)c(F)c2)c1C#Cc1ccc(N)nc1 [Example E-149] showed an IC50 of 85.8 nM. CCc1ncnc(-c2cc(F)c(C(=O)N3CCC4(CC3)COC4)c(F)c2)c1C#Cc1ccc(N)nc1 [Example E-150] was tested, and the IC50 was 120 nM. Compound CCc1ncnc(-c2cc(F)c(C(=O)N3CCn4cnnc4C3)c(Cl)c2)c1C#Cc1ccc(N)nc1 [Example E-156] has an IC50 of 18.3 nM. CCc1ncnc(-c2cc(F)c(C(=O)N3CCn4c(C)cnc4C3)c(Cl)c2)c1C#Cc1ccc(N)nc1 [Example E-157] showed an IC50 of 37.5 nM. With CCc1ncnc(-c2cc(F)c(C(=O)N3CCC4(CC3)COC4)c(Cl)c2)c1C#Cc1ccc(N)nc1 [Example E-158] the IC50 was 122 nM.
